# Experimental data: the supplement of paper PMC10307832
# Columns and labels:
# [1] = compound: COc1cccc2c1C(=O)c1c(O)c3c(c(O)c1C2=O)C[C@@](O)(C(=O)CO)C[C@@H]3O[C@H]1C[C@H](N)[C@H](O)[C@H](C)O1 [Doxorubicin] + Cc1cc(Nc2cc(N3CCN(C)CC3)nc(Sc3ccc(NC(=O)C4CC4)cc3)n2)n[nH]1 [Tozasertib] (partner 0.1 µM); experiment: relative viability (nuclei count vs DMSO), 5 days (fraction); higher = more cells survive
# In short: (§1)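 Relative viability divides the nuclei count in treated wells by that in vehicle wells. Lung cancer cell lines were seeded in 1536-well plates, dosed by pin tool the next day, and fixed and stained after 5 days in one step with final 0.05% Triton X-100, 1% formaldehyde and 1 ug/ml Hoechst. Dosing was a single drug or a fixed anchor-drug dose plus five library-drug doses (not always all listed) in √10 steps, and values are medians of duplicate plates imaged at 4×.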
# [2] = compound: COC1=C(C=C(C=C1)C2=CC3=NC=CN3C(=N2)NC4=C(C=CC=N4)C(=O)N)OC [BAY61-3606] + COc1cc2c(Oc3ccc(NC(=O)C4(C(=O)Nc5ccc(F)cc5)CC4)cc3F)ccnc2cc1OCCCN1CCOCC1 [Foretinib] (partner 0.25 µM); experiment: as above
# In short: as §1
Cell Line,relative viability ([1]; first compound 0.001 µM),relative viability ([1]; first compound 0.003162 µM),relative viability ([1]; first compound 0.01 µM),relative viability ([1]; first compound 0.03162 µM),relative viability ([1]; first compound 0.1 µM),relative viability ([2]; first compound 0.02 µM),relative viability ([2]; first compound 0.06325 µM),relative viability ([2]; first compound 0.2 µM),relative viability ([2]; first compound 0.6325 µM),relative viability ([2]; first compound 2 µM)
PC-14,0.598,0.573,0.599,0.59,0.487,0.992,0.957,0.911,0.963,0.931
NCI-H1703,,,,,,0.337,,0.315,0.316,0.346
NCI-H2087,,0.278,0.248,0.165,0.156,1.21,1.08,1.05,1.06,0.924
NCI-H1755,0.605,0.556,0.576,0.552,0.598,0.932,0.867,0.974,0.913,0.882
NCI-H2228,0.276,0.269,0.21,0.125,0.107,0.891,0.914,0.714,0.858,0.645
EMC-BAC-2,0.321,0.26,0.308,0.25,0.216,1.1,0.992,1.02,1.11,0.738
NCI-H2009,0.748,0.745,0.678,0.524,0.284,1.34,1.31,1.22,1.26,1.06
NCI-H661,0.37,0.354,0.349,0.339,0.388,1.06,1.05,0.99,1.02,0.941
NCI-H838,0.281,0.306,0.261,0.274,0.226,0.973,0.991,0.947,1.06,0.955
NCI-H1915,0.481,0.439,0.452,0.41,0.437,1.06,1.09,1.07,1.13,0.613
NCI-H441,,0.612,0.511,0.249,0.245,0.979,1.12,1.15,0.862,0.754
ChaGo-K-1,0.229,0.199,0.222,0.208,0.226,0.868,0.834,0.93,0.948,0.788
NCI-H2342,0.528,0.506,0.545,0.508,0.625,1.03,1.05,1.02,1.22,0.957
NCI-H1355,0.632,0.508,0.52,0.443,0.598,0.981,0.911,0.922,0.992,0.761
NCI-H1651,0.643,0.793,0.648,0.319,0.157,0.886,0.713,0.765,0.88,0.739
NCI-H2023,0.351,0.378,0.294,0.157,0.0799,0.864,0.906,1.03,0.812,0.812
LU99A,0.298,0.28,0.287,0.281,0.309,0.915,0.656,0.858,0.63,0.526
NCI-H322M,0.518,0.506,0.518,0.437,0.383,1.12,0.91,0.981,1.03,0.831

Cell Line,relative viability ([1]; first compound 0.001 µM),relative viability ([1]; first compound 0.003162 µM),relative viability ([1]; first compound 0.01 µM),relative viability ([1]; first compound 0.03162 µM),relative viability ([1]; first compound 0.1 µM),relative viability ([2]; first compound 0.02 µM),relative viability ([2]; first compound 0.06325 µM),relative viability ([2]; first compound 0.2 µM),relative viability ([2]; first compound 0.6325 µM),relative viability ([2]; first compound 2 µM)
SW 900,0.543,0.491,0.596,0.456,0.231,0.826,0.949,0.571,1.11,0.586
LOU-NH91,0.638,0.644,0.71,0.638,0.615,0.95,0.916,0.985,0.976,0.823
NCI-H727,0.697,0.513,0.697,0.636,0.661,0.919,0.931,0.887,0.985,0.8
RERF-LC-KJ,0.538,0.406,0.398,0.233,0.233,0.899,0.922,0.828,0.886,0.779
H3255,0.59,0.759,0.573,0.604,0.539,0.969,1,0.841,0.995,0.829
NCI-H1793,,0.403,0.348,0.286,0.358,0.79,0.674,,0.692,0.476
NCI-H1563,,,,,,1.03,0.99,0.893,0.931,0.847
NCI-H1648,0.55,0.471,0.348,0.304,0.456,,,,,
LXF-289,0.205,0.192,0.192,0.221,0.2,0.966,0.971,0.978,0.988,0.944
NCI-H522,0.581,0.577,0.512,0.488,0.609,,,,,
HOP-62,0.376,0.414,0.402,0.352,0.405,1.05,1.04,1.1,1.13,0.815
LK-2,0.153,0.156,0.134,0.177,0.19,1.24,1.19,1,1.32,0.768
HCC-44,0.767,0.882,0.797,0.284,0.321,,,,,
BEN,0.587,0.564,0.576,0.469,0.54,0.701,0.69,0.723,0.654,0.911
NCI-H2405,0.847,0.759,0.74,0.693,0.546,1.06,1.05,1.11,1.11,0.867
NCI-H1395,0.791,0.724,0.89,0.65,0.799,1.13,0.934,0.951,0.995,0.807
A549,,,,,,1.11,0.989,0.853,0.969,0.809
